Experimental data taken from patent US9175357B2, “Fragment ligated inhibitors selective for the polo box domain of PLK1” (UNIVERSITY OF SOUTH CAROLINA, priority 2011, dated 2015).
Like-named read-outs stand apart in the source and are kept apart here. Numbered stars: 1 amine (or outer) side, 2 acyl side, 3 side chain; on linkers, the order of the positions; unused ones are H or OH. Square brackets hold non-standard residues; d marks the D form. Ends that are not written are not given here. Peptide text beside a SMILES is read from it. * marks the point of attachment. Quinoline(6-carbonyl) = O=C(c1ccc2ncccc2c1)*; X11 = O=C(c1cn(S(=O)(=O)c2ccccc2)c2ccccc12)*; X6 = Cc1c(C(=O)*)cc(-c2ccccc2)n1-c1ccccc1; NMe4Abz = CN(c1ccc(C(=O)[*:2])cc1)[*:1]; X3 = Cc1ccc(-c2cn(CC(=O)*)c(=O)cn2)cc1; pT = C[C@@H](OP(=O)(O)O)[C@H](N)C(=O)O; X14 = COc1cccc(-c2cc(C(=O)*)[nH]n2)c1; Benzoyl(4-OMe) = COc1ccc(C(=O)*)cc1; X7 = Cc1ccc2c(c1)N(CC(=O)*)C(=O)CO2; Benzoyl(4-Et) = CCc1ccc(C(=O)*)cc1; 1Naphthoyl = O=C(c1cccc2ccccc12)*; X2 = Cc1nc(-c2ccc(C(=O)*)cc2)no1; X10 = COc1cc(C(=O)*)cc2c1OCCO2; X15 = COc1ccc(C(=O)*)c2ccccc12; X8 = Cc1cc2c(SCC(=O)*)ncnc2s1; X1 = CCCCc1ccc(C(=O)*)cc1; X17 = CCCc1ccc(C(=O)*)cc1; X5 = CCCNc1ccc(C(=O)*)cc1; X9 = CCOc1ccc(C(=O)*)cc1; X4 = CSc1ccc(C(=O)*)cc1

Key:
[1] = target: PLK1 PBD protein (residues 367-603) (Homo sapiens (Human), UniProt P53350); experiment: Competitive fluorescence polarization (FP) binding assay, PLK1 PBD
PLK1 = PLK1 (Homo sapiens (Human), UniProt P53350); conditions: previously identified minimized PBD binding sequences; cited from earlier work
[2] = Table 2, FP assay, read-out: IC50

Sequence of PLK1 PBD protein (residues 367-603) (P53350 367-603): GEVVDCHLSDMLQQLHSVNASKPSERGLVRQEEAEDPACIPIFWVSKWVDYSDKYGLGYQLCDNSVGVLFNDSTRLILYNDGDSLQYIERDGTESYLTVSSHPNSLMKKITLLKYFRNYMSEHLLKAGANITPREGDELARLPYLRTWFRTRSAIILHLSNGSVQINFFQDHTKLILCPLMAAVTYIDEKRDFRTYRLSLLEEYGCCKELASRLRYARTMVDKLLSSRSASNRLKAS
Sequence of PLK1 (P53350 326-603): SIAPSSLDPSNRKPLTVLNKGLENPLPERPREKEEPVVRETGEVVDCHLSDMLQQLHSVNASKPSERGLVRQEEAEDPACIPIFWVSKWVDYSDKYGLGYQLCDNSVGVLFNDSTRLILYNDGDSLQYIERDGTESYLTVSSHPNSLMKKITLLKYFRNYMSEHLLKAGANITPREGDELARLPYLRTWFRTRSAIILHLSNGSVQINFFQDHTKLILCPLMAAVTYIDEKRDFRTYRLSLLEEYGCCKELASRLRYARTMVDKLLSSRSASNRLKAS

Row | Compound | IC50 [1] [µM] | IC50 [1, 2] [µM] | other results
1 | CC(C)C[C@H](NC(=O)CNC(=O)[C@H](CC(N)=O)NC(=O)[C@@H]1CCCN1C(=O)[C@@H](NC(=O)[C@@H](N)CO)[C@@H](C)OP(=O)(O)O)C(=O)O [Sample No. 5714, S[pT]PNGL] (H-S[pT]PNGL-OH) | – | – | PLK1 PBD IC50 ([1]; Table 1): no detectable binding
2 | CC[C@H](C)[C@H](NC(=O)[C@H](C)NC(=O)[C@@H](NC(=O)[C@H](CO)NC(=O)[C@H](Cc1c[nH]cn1)NC(=O)[C@H](CC(C)C)NC(C)=O)[C@@H](C)OP(=O)(O)O)C(=O)O [Sample No. 5781, Ac-LHS[pT]AI, reference compound] (Ac-LHS[pT]AI-OH) | – | – | IC50 ([1]; Table 1, read-out: PLK1 PBD IC50): 5 µM
3 | CC(C)C[C@H](NC(=O)CNC(=O)[C@H](CC(N)=O)NC(=O)[C@@H]1CCCN1C(=O)[C@@H](NC(=O)[C@H](CO)NC(=O)c1cn(S(=O)(=O)c2ccccc2)c2ccccc12)[C@@H](C)OP(=O)(O)O)C(=O)O [compound 5591] (X11-S[pT]PNGL-OH) | 375 | – | –
4 | COc1cccc(-c2cc(C(=O)N[C@@H](CO)C(=O)N[C@H](C(=O)N3CCC[C@H]3C(=O)N[C@@H](CC(N)=O)C(=O)NCC(=O)N[C@@H](CC(C)C)C(=O)O)[C@@H](C)OP(=O)(O)O)[nH]n2)c1 [compound 5593] (X14-S[pT]PNGL-OH) | 380 | – | –
5 | Cc1ccc2c(c1)N(CC(=O)N[C@@H](CO)C(=O)N[C@H](C(=O)N1CCC[C@H]1C(=O)N[C@@H](CC(N)=O)C(=O)NCC(=O)N[C@@H](CC(C)C)C(=O)O)[C@@H](C)OP(=O)(O)O)C(=O)CO2 [compound 5594, 1G1-S[pT]PNGL] (X7-S[pT]PNGL-OH) | 350 | – | –
6 | Cc1cc2c(SCC(=O)N[C@@H](CO)C(=O)N[C@H](C(=O)N3CCC[C@H]3C(=O)N[C@@H](CC(N)=O)C(=O)NCC(=O)N[C@@H](CC(C)C)C(=O)O)[C@@H](C)OP(=O)(O)O)ncnc2s1 [compound 5595] (X8-S[pT]PNGL-OH) | 475 | – | –
7 | Cc1nc(-c2ccc(C(=O)N[C@@H](CO)C(=O)N[C@H](C(=O)N3CCC[C@H]3C(=O)N[C@@H](CC(N)=O)C(=O)NCC(=O)N[C@@H](CC(C)C)C(=O)O)[C@@H](C)OP(=O)(O)O)cc2)no1 [compound 5598, 1G2-S[pT]PNGL] (X2-S[pT]PNGL-OH) | 320 | – | –
8 | Cc1c(C(=O)N[C@@H](CO)C(=O)N[C@H](C(=O)N2CCC[C@H]2C(=O)N[C@@H](CC(N)=O)C(=O)NCC(=O)N[C@@H](CC(C)C)C(=O)O)[C@@H](C)OP(=O)(O)O)cc(-c2ccccc2)n1-c1ccccc1 [compound 5599] (X6-S[pT]PNGL-OH) | 600 | – | –
9 | CC(C)C[C@H](NC(=O)CNC(=O)[C@H](CC(N)=O)NC(=O)[C@@H]1CCCN1C(=O)[C@@H](NC(=O)[C@H](CO)NC(=O)c1ccc2ncccc2c1)[C@@H](C)OP(=O)(O)O)C(=O)O [compound 5601] ({Quinoline(6-carbonyl)}-S[pT]PNGL-OH) | 400 | – | –
10 | Cc1ccc(-c2cn(CC(=O)N[C@@H](CO)C(=O)N[C@H](C(=O)N3CCC[C@H]3C(=O)N[C@@H](CC(N)=O)C(=O)NCC(=O)N[C@@H](CC(C)C)C(=O)O)[C@@H](C)OP(=O)(O)O)c(=O)cn2)cc1 [compound 5603, 1G3-S[pT]PNGL] (X3-S[pT]PNGL-OH) | 250 | – | –
11 | COc1cc(C(=O)N[C@@H](CO)C(=O)N[C@H](C(=O)N2CCC[C@H]2C(=O)N[C@@H](CC(N)=O)C(=O)NCC(=O)N[C@@H](CC(C)C)C(=O)O)[C@@H](C)OP(=O)(O)O)cc2c1OCCO2 [compound 5604] (X10-S[pT]PNGL-OH) | 300 | – | –
12 | CC[C@H](C)[C@H](NC(=O)[C@H](C)NC(=O)[C@@H](NC(=O)[C@H](CO)NC(=O)[C@H](Cc1c[nH]cn1)NC(=O)[C@@H](N)CC(C)C)[C@@H](C)OP(=O)(O)O)C(=O)O [compound 5649, LHS[pT]AI] (H-LHS[pT]AI-OH) | – | – | Kd (PLK1): 0.25 µM
13 | CC(C)C[C@H](NC(=O)CNC(=O)[C@H](CC(N)=O)NC(=O)[C@@H]1CCCN1C(=O)[C@@H](NC(=O)[C@H](CO)NC(=O)c1cccc2ccccc12)[C@@H](C)OP(=O)(O)O)C(=O)O [compound 5753] (1Naphthoyl-S[pT]PNGL-OH) | 104 | – | –
14 | COc1ccc(C(=O)N[C@@H](CO)C(=O)N[C@H](C(=O)N2CCC[C@H]2C(=O)N[C@@H](CC(N)=O)C(=O)NCC(=O)N[C@@H](CC(C)C)C(=O)O)[C@@H](C)OP(=O)(O)O)cc1 [compound 5754] ({Benzoyl(4-OMe)}-S[pT]PNGL-OH) | – | 125 | –
15 | COc1ccc(C(=O)N[C@@H](CO)C(=O)N[C@H](C(=O)N2CCC[C@H]2C(=O)N[C@@H](CC(N)=O)C(=O)NCC(=O)N[C@@H](CC(C)C)C(=O)O)[C@@H](C)OP(=O)(O)O)c2ccccc12 [compound 5756, 2G1-S[pT]PNGL] (X15-S[pT]PNGL-OH) | 99 | – | –
16 | CCOc1ccc(C(=O)N[C@@H](CO)C(=O)N[C@H](C(=O)N2CCC[C@H]2C(=O)N[C@@H](CC(N)=O)C(=O)NCC(=O)N[C@@H](CC(C)C)C(=O)O)[C@@H](C)OP(=O)(O)O)cc1 [compound 5786] (X9-S[pT]PNGL-OH) | – | 64.7 | –
17 | CCc1ccc(C(=O)N[C@@H](CO)C(=O)N[C@H](C(=O)N2CCC[C@H]2C(=O)N[C@@H](CC(N)=O)C(=O)NCC(=O)N[C@@H](CC(C)C)C(=O)O)[C@@H](C)OP(=O)(O)O)cc1 [compound 5788, 3G1-S[pT]PNGL (4-ethylbenzoic acid)] ({Benzoyl(4-Et)}-S[pT]PNGL-OH) | – | 16.5 | –
18 | CSc1ccc(C(=O)N[C@@H](CO)C(=O)N[C@H](C(=O)N2CCC[C@H]2C(=O)N[C@@H](CC(N)=O)C(=O)NCC(=O)N[C@@H](CC(C)C)C(=O)O)[C@@H](C)OP(=O)(O)O)cc1 [compound 5791] (X4-S[pT]PNGL-OH) | – | 18.5 | –
19 | CNc1ccc(C(=O)N[C@@H](CO)C(=O)N[C@H](C(=O)N2CCC[C@H]2C(=O)N[C@@H](CC(N)=O)C(=O)NCC(=O)N[C@@H](CC(C)C)C(=O)O)[C@@H](C)OP(=O)(O)O)cc1 [compound 5792] (NMe4Abz-S[pT]PNGL-OH) | – | 31.2 | –
20 | CCCc1ccc(C(=O)N[C@@H](CO)C(=O)N[C@H](C(=O)N2CCC[C@H]2C(=O)N[C@@H](CC(N)=O)C(=O)NCC(=O)N[C@@H](CC(C)C)C(=O)O)[C@@H](C)OP(=O)(O)O)cc1 [compound 5826] (X17-S[pT]PNGL-OH) | – | 10.8 | –
21 | CCCCc1ccc(C(=O)N[C@@H](CO)C(=O)N[C@H](C(=O)N2CCC[C@H]2C(=O)N[C@@H](CC(N)=O)C(=O)NCC(=O)N[C@@H](CC(C)C)C(=O)O)[C@@H](C)OP(=O)(O)O)cc1 [compound 5827, 3G2-S[pT]PNGL (4-butylbenzoic acid)] (X1-S[pT]PNGL-OH) | – | 8.6 | –
22 | CCCNc1ccc(C(=O)N[C@@H](CO)C(=O)N[C@H](C(=O)N2CCC[C@H]2C(=O)N[C@@H](CC(N)=O)C(=O)NCC(=O)N[C@@H](CC(C)C)C(=O)O)[C@@H](C)OP(=O)(O)O)cc1 [compound 5830] (X5-S[pT]PNGL-OH) | – | 16.5 | –
23 | Ac-PLHSEA [compound 5744, Ac-PLHSEA] | – | – | PLK1 PBD IC50 ([1]; Table 1): weakly but detectably bound
